According to paper PMC12903969, “Discovery of a Novel and Potent Kir4.1 Inhibitor as a Safe and Rapid‐Onset Antidepressant Agent in Mice” (Advanced Science, 2025):
Several values for one entry are separate records, joined by “and”; a condition that tells them apart may be missing. Equal values may be shown once. Read-outs that look alike come from different tables or passages of the source.

Columns and labels:
5-HT2A receptor = target: T1, 5-HT2A receptor (Homo sapiens, UniProt P28223); test: 5-HT2A functional assay (Fluo-4 calcium, FDSS); format: cell-based
T1 construct: expressed in transfected cells
T1 sequence (P28223 whole entry): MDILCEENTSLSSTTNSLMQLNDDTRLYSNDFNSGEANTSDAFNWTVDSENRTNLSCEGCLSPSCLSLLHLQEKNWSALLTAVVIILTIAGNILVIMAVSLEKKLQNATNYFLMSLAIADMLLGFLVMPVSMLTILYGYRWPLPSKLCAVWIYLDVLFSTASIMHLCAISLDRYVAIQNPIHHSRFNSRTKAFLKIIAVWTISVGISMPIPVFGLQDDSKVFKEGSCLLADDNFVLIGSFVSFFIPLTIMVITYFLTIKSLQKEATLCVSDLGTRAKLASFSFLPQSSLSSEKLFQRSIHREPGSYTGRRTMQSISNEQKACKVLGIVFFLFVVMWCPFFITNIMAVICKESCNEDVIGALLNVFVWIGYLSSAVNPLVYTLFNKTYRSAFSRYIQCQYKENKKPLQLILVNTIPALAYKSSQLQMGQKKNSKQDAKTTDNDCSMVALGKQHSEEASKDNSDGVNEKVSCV
Description: Cells with inducible expression of target receptor were cultured in 175‐cm^2 flasks until ≈80% confluence, washed once with phosphate‐buffered saline (PBS), and dissociated using 0.25% trypsin–EDTA. After neutralization with culture medium and centrifugation (800 rpm, 3 min), the cells were resuspended, counted, and seeded onto poly‐D‐lysine‐coated 96‐well black plates at a density of 4 × 10^4 cells/well. Expression of the target receptor was induced with 1 µg mL^−1 doxycycline. After 30 min at room temperature, the plates were incubated at 37 °C, 5% CO2 for 18−24 h until reaching ≈90% confluence. The medium was replaced with Ca^2⁺‐free extracellular buffer, washed once, and incubated with Fluo‐4 AM for 60 min at 37 °C in the dark. After washing twice with extracellular buffer, extracellular buffer was added (80 µL/well), and the cells were incubated for an additional 20 min at room temperature before fluorescence recording. Real‐time fluorescence changes were recorded using an FDSS/µCell system at 480 nm excitation and 540 nm emission with a sampling rate of 1 Hz. After a 10‐s baseline, the test compounds were added (20 µL/well), and fluorescence was recorded for 180 s. Subsequently, […] was added (20 µL/well), and the signals were monitored for a total of 360 s.
The agonistic effect (%) of compounds was calculated as follows: (1) Agonist%=Rcompound−Rcontrol/Rcontrol×100% where R control is the maximal fluorescence ratio after the addition of 0.5% DMSO and R compoundis the ratio obtained after compound treatment. Fluorescence response curves and EC50 values were used to evaluate the agonistic potency. The extracellular (Ca^2+‐free) buffer contained (in mM): 140 NaCl, 5 KCl, 1 MgCl2, 10 glucose, 10 HEPES, 2 probenecid; pH adjusted to 7.4 with NaOH.

[1] = Plasma/tissue (kidney) distribution; format: in vivo; conditions: male, C57BL/6J, mouse, ip, mice (N = 3), 10 mg/kg i.p.
Description: Male C57BL/6J mice were used for both blood–brain penetration and plasma/tissue distribution studies, with mice assigned to three groups: 10 mg kg^−1 JX3212 (n = 3), 20 mg kg^−1 JX3212 (n = 3) for blood–brain penetration, and 10 mg kg^−1 JX3212 for plasma/tissue distribution (all administered via intraperitoneal injection), where mice in the blood–brain penetration groups were fasted for 12 h prior to drug administration and 2 h post‐administration; 1 h after drug administration, 0.2 mL of blood was collected from the retro‐orbital/orbital venous plexus into 1.5 mL heparinized tubes, centrifuged at 11 000 rpm for 5 min to obtain plasma (stored at −80 °C for blood–brain penetration groups), while whole brains were excised for blood–brain penetration groups and whole brains plus kidneys (rinsed with physiological saline, blotted dry on filter paper, and accurately weighed) for the plasma/tissue distribution group; plasma samples (20 µL) were mixed with 20 µL internal standard solution and 300 µL acetonitrile for protein precipitation, vortexed for 15 min, centrifuged at 3700 rpm for 15 min at 4 °C, and the supernatant was collected, whereas brain and kidney samples were homogenized in acetonitrile at 10× tissue weight (8000 rpm, 3 × 30 s), sonicated for 5 min, and processed identically to plasma samples; the concentrations of JX3212 in plasma and tissues were quantified by liquid chromatography–tandem mass spectrometry (LC−MS/MS), with lower limits of quantification set to 50 ng mL^−1 for plasma and 50 ng g^−1 for brain tissue.

[2] = test system: primary cortical astrocytes (native Kir4.1 channels); test: Patch clamp of primary cultured WT astrocytes (native Kir4.1); format: cell-based, mouse
Description: Astrocytes were isolated and cultured as previously described.^[ [16] ^] Briefly, the cortices from P1‐P4 mouse pups were dissected and incubated for 25 min in Hank's Balanced Salt Solution (22.5 ml) with 2.5% trypsin (2.5 ml) at 37 °C. Cells were dissociated in cultured medium (DMEM/F12 supplemented with 10% fetal bovine serum and 1% penicillin and streptomycin) and filtered with a 70‐µm cell strainer. Cell suspensions were cultured in PDL‐pretreated 75‐cm^2 flasks for the initial seven days, with half of the medium replaced every 2 days. Subsequently, the cultures were shaken at 220 rpm for 6 h at 37 °C to remove microglia and oligodendrocytes from the astrocyte layers. The astrocytes were harvested, reseeded in two new flasks, and cultured in an incubator for 14 days. For Kir4.1 deletion in cell cultures, 4‐OH tamoxifen (final concentration: 1 µM, Felixbio) was added into Kir4.1^flox/flox: Aldh1l1‐Cre/ERT2 cortical cultures at DIV 2 and DIV 4, respectively, and completely removed at DIV7 when astrocytes were reseeded in fresh culture medium.
Whole‐cell patch‐clamp recordings were obtained either in transiently transfected CHO‐K1 cells or in primary cultured astrocytes at room temperature using standard patch‐clamp techniques with an Axopatch‐700B amplifier (Axon Instruments). The signals were filtered at 2 kHz and sampled at 20 kHz using the Digidata 1440A interface (Axon Instruments). The resistance of borosilicate glass pipettes was typically 2–4 MΩ when filled with the internal solution. Drug application was facilitated using a BPS perfusion system (ALA Scientific Instruments). Macroscopic currents generated by expressed potassium channels were recorded under the voltage‐clamp conditions with an internal pipette solution composed of (in mM): 140 KCl, 5 NaCl, 1 CaCl2, 1 MgCl2, 10 HEPES, and 10 EGTA, pH 7.2 adjusted with KOH. The external solution contained (in mM): 140 NaCl, 5 KCl, 2 CaCl2, 1 MgCl2, 10 glucose, and 10 HEPES, pH 7.4 adjusted with NaOH. Currents were elicited with a hyperpolarized voltage at −120 mV from the holding potential of −80 mV, followed by a ramp voltage depolarizing to +50 mV. Astrocytic resting membrane potentials were recorded under current‐clamp conditions (I = 0 pA) using standard internal and external solutions, determined immediately after achieving whole‐cell mode.

mice = test: Repeat-dose (14-day subacute) toxicity study
Description: The mice received daily treatments for 14 consecutive days and were monitored once daily for signs of toxicity. Individual body weights were measured daily throughout the observation period. At the end of this period, all mice were sacrificed and dissected. Macroscopic evaluation was performed, and the heart, liver, spleen, lungs, kidneys, and brain were excised for relative weight calculations. Representative organ fragments were embedded in formalin and paraffin, then fixed for subsequent histopathological analysis. Serum biochemical analyses included determination of creatinine, urea, alanine aminotransferase, and aspartate aminotransferase.

[3] = 100 mg/kg, 14-day, individual animals
[4] = organ weight index, 100 mpk, 14-day, individual animals, 100 mg/kg

Molecule `c1ccc2c(c1)oc1ccc(Nc3ccnc(NCCCN4CCOCC4)n3)cc12` [JX3212, N^4-(dibenzo[b,d]furan-2-yl)-N^2-(3-morpholinopropyl)pyrimidine-2,4-diamine] has an EC50 (5-HT2A receptor; agonistic effect) greater than 60 µM, an activation at 60 µM (5-HT2A receptor; read-out: 5-HT2A agonistic effect, replicates, concentration 60 (presumably µM)) of 61.8% and an Emax (5-HT2A receptor; read-out: 5-HT2A max activation%) of 58.6%. The concentration at 1 h ([1]; kidney, read-out: Kidney Calculated Concentration) was 18400 ± 681 ng/mL, the Kp at 1 h ([1]; kidney/plasma) was 78.9 ± 2.74 and the concentration at 1 h ([1]; plasma, read-out: Plasma Calculated Concentration) was 234 ± 14.4 ng/mL. For the same molecule, the “astrocytic resting membrane potential (in words)” value ([2]; JX3212 3 µM, BaCl2 100 µM) was “marked depolarization”, the “astrocytic macroscopic slope conductance (in words)” value ([2]; WT astrocytes, 3 µM) was “partially impaired the macroscopic slope conductance” and the “astrocytic potassium currents (in words)” value ([2]; WT astrocytes, 3 µM) was “notably decreased potassium currents”. For the same molecule, the “histomorphology of liver, spleen, kidneys, HE staining (in words)” value (mice; 100 mg kg−1 i.p., 14 days) was “no pronounced pathological changes”, the “serum creatine level (in words)” value (mice; 100 mg kg−1 i.p., 14 days) was “slight decrease in creatine levels” and the “mortality, body weight, organ-to-body weight ratio (in words)” value (mice; 100 mg kg−1 i.p., 14 days, n = 6) was “No mortality or significant changes in body weight”. The ALT (mice; [3]) was 24 and 28 and 22 and 33 and 30 and 36, the AST (mice; [3]) was 77 and 98 and 90 and 81 and the Cr (mice; [3]) was 23 and 24 and 31 and 22. For the same molecule, the Body weight (mice; 100 mpk, day 1, individual animals) was 24.7 and 25 (2×) and 25.5, the Body weight (mice; 100 mpk, day 2, individual animals) was 24.3 and 25 and 24.7 and 23.4 (2×) and 24.2 and the Body weight (mice; 100 mpk, day 3, individual animals) was 25 (2×) and 23.6 and 23.7 and 24.2 and 23.8. The Body weight (mice; 100 mpk, day 4, individual animals) was 23.4 and 25 and 24.7 and 25.4 and 24 (2×), the Body weight (mice; 100 mpk, day 5, individual animals) was 25 and 23.3 and 24.7 (2×) and 25.4 and the Body weight (mice; 100 mpk, day 6, individual animals, in g (unit assumed)) was 24.7 and 23.4 and 25 and 25.8 and 24.4. For the same molecule, the Body weight (mice; 100 mpk, day 7, individual animals, in g (unit assumed)) was 25.1 and 23.1 and 25.2 and 25.3 and 23.9 and 24.5, the Body weight (mice; 100 mpk, day 8, individual animals) was 24.6 (2×) and 23.2 and 24 and 24.9 and 22.8 and the Body weight (mice; 100 mpk, day 9, individual animals) was 23.2 and 23 and 24.8 (2×) and 23.5 and 25. The Body weight (mice; 100 mpk, day 10, individual animals, in g (unit assumed)) was 23.6 and 22.9 and 24.4 and 24.1, the Body weight (mice; 100 mpk, day 11, individual animals, in g (unit assumed)) was 24.4 and 23.3 and 23.8 and the Body weight (mice; 100 mpk, day 12, individual animals, in g (unit assumed)) was 24.4 and 23.7 and 24.2 and 23.3. The Body weight (mice; 100 mpk, day 13, individual animals) was 24.3 and 24.1 (2×) and 23.6 and 25.7 and 23.4, the Body weight (mice; 100 mpk, day 14, individual animals, in g (unit assumed)) was 24.1 and 23.8 and 26.2 and 24.4 and 22.9 and 24 and the Brain (mice; [4]) was 1.903 and 1.921 and 1.682 and 2.001 and 1.79 and 1.878. For the same molecule, the Heart (mice; [4]) was 0.4606 and 0.4848 and 0.4887 and 0.4129 and 0.4371 and 0.4527, the Kidney (mice; [4]) was 1.532 and 1.538 and 1.4509 and 1.426 and 1.403 and 1.554 and the Liver (mice; [4]) was 6.39 and 5.873 and 5.169 and 5.3375 and 6.082 and 6.251. For the same molecule, the Lung (mice; [4]) was 0.6629 and 0.6646 and 0.5455 and 0.5464 and 0.7241 and 0.5883 and the Spleen (mice; [4]) was 0.4787 and 0.4556 and 0.409 and 0.4522 and 0.473 and 0.3725.
